From patent publication US12084472B2 (Ardelyx, Inc., priority 2015, dated 2024)
Marks after values point to notes of the source that are not given here.

Key:
[1] = test system: mice with 5-FU-induced diarrhea; assay: Chemotherapy-induced diarrhea model (5-FU), fecal form score; format: in vivo, CD-1 female mice; conditions: 5-FU 60 mg/kg IP days 5-11; I-388 30 mg/kg PO BID, teduglutide 0.4 mg/kg SQ BID, days 1-13; FFS days 11-13 summed; FIG. 1
Procedure: Four groups of adult CD-1 female mice on regular chow were dosed with the following BID starting on Day 1: 2 groups, vehicle (10% hydroxypropyl-β-cyclodextrin in PBS; PO; 5 mL/kg); 1 group, Compound I-388 at 30 mg/kg in vehicle (PO; 5 mL/kg); and 1 group, teduglutide 0.4 mg/kg (American Peptide, Sunnyvale, CA; reconstituted in PBS; SQ; 10 mL/kg) 0.4 mg/kg SQ. On Days 5-11, the groups of mice were also given QD IP injections (5 mL/kg) of the following treatments: first vehicle group, PBS and remaining groups, 5-fluorouracil (5-FU) 60 mg/kg (Fresenius Kabi USA, Lake Zurich, IL) diluted in PBS to induce mucositis with diarrhea. Body weight was measured throughout the study and fecal form was scored on Day 11-13 of the study according to the following scale: 0, normal stool; 1, slightly wet and soft stool; 2, wet and unformed stool with moderate perianal staining of the coat; 3, watery stool with severe perianal staining of the coat.
All mice were dosed on day 1-13 with vehicle, with 0.4 mg/kg of teduglutide, or with 30 mg/kg of compound I-388 (vehicle and Cmpd. I-388: PO, […] and teduglutide: SQ, 10 mL/kg). PBS or 5-FU at 60 mg/kg (used to induce mucositis and diarrhea) were administered interperionally (IP; 5 mL/kg) on days 5-11.

[2] = molecular target: T1, human TGR5 (Homo sapiens, UniProt Q8TDU6); assay: Cell-based TGR5 assay (cAMP generation, HTRF); conditions: HEK293 cells stably transfected with human TGR5; cAMP by HTRF; 30 minutes at 37° C.; read-out: pEC50 Human TGR5 (converted)
T1 construct: expressed in transfected cells; host or cells: HEK293
T1 sequence (Q8TDU6 1-330): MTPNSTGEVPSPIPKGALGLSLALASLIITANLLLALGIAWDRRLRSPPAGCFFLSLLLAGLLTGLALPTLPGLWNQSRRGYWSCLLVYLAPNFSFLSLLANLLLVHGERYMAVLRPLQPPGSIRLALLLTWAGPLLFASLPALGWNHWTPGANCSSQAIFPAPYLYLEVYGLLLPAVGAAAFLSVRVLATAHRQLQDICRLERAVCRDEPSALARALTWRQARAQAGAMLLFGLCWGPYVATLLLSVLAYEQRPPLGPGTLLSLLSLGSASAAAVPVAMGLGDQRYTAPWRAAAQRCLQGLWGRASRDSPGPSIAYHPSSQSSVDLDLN
Summary of the method: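 First, compounds in 3-fold serial dilution were placed in HBSS with 10 mM HEPES pH 7.4 and 0.5 mM IBMX. Next, human TGR5-expressing HEK293 cells were added and incubated 30 min at 37° C. Finally, cAMP was detected by HTRF and pEC50 derived by logistic fitting.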

[3] = test system: Western diet (WD)-fed mice; assay: Mouse model of NAFLD and mild diabetes, Western diet (WD)-fed mice: glucose, insulin, liver lipids, GLP levels; format: in vivo, C57BL/6 male mice
Procedure: Seven week old C57BL/6 male mice were housed 5/cage. Two cages of mice were put on normal chow (Harlan Teklad 2018), and the remaining cages of mice were put on WD (Harlan Teklad, TD.88137, […]/0.2% cholesterol) to induce NAFLD. After 10 weeks, mice were weighed and fasted for 4 h. Blood was collected to measure fasting glucose levels, processed to plasma for measurement of insulin, triglycerides and total cholesterol. This process was repeated on Day 29 of treatment. Based on body weight and fasted glucose and insulin levels, mice were divided into 5 treatment groups (n=10/group), Table 20. […] Mice were weighed twice weekly throughout the study. On the last day of the study (Day 30, 8 hours after food removal), mice were euthanized. Blood was collected in tubes with inhibitors to block DPP-4 activity and processed to plasma for measurement of liver enzymes and GLP levels using an Ace Alera clinical analyzer and the Multi-Array Assay System from Meso Scale Discovery, respectively. The entire liver was collected, weighed, and a sample was taken and weighed for measurement of triglycerides and total cholesterol.
Data for each group are presented as mean±SEM. Statistical analyses were performed using one-way ANOVA followed by Holm-Sidak's multiple comparisons test. For GLP levels, <statistical significance compared to vehicle (WD) is marked as *, P<0.05; **, P<0.01, ***, P<0.001, and ****, P<0.0001; of linagliptin (WD) versus I-389 alone (WD) or linaglptin+I-389 (WD) is marked as †, P<0.05; ††, P<0.01, of †††, P<0.001, and ††††, P<0.0001; and of I-389 (WD) versus linagliptin (WD)+I-389 (WD) is marked as ^, P<0.05; ^ ^P<0.01, ^ ^^P, P<0.001, and ^ ^^^, P<0.0001. For the remaining parameters, statistical significance compared to vehicle (WD) is marked as *, P<0.05; **, P<0.01, ***, P<0.001, and ****, P<0.0001.

[4] = test system: small intestine transit; assay: Intestinal motility independent of gastric emptying (carmine red dye front); format: in vivo, C57BL/6 male mice; conditions: I-389 30 mg/kg PO; dye infused via duodenal catheter 1 h later; 15 min; vs vehicle; FIG. 6
Procedure: Seven-eight week old C57BL/6 male mice were acclimated for four days. Mice were then divided into 2 groups and fasted for 2-1/2 h, followed by a PO dose (10 mL/kg) of vehicle (10% 2-hydroxypropyl-β-cyclodextrin [HPCD] in 10 mM PBS containing 0.1% tween 80; HPCD/tween 80) or I-389 30 mg/kg. One hour later, carmine red (6% in sterile water; 100 μL/mouse) dye was infused via the duodenal catheter and mice were euthanised fifteen min after that. The entire length of the small intestine and the distance from the stomach to the dye front in the small intestine was measured and used to calculate the percentage of the small intestine the dye front had travelled during the 15 min timeframe.

[5] = test system: small intestine and colon of mice; assay: Small intestine and colon weight, villus/crypt length, colon crypt depth, plasma GLP-1 and GLP-2 in mice; format: in vivo, CD-1 female mice; conditions: ten consecutive days
Procedure: Tedulgutide (a GLP-2 receptor agonist; American Peptide, catalog #304076, supplied by Bachem) 50 μg/kg in […] was injected SC in a control group BID during the same period. […] The small intestine and colon were collected, flushed with cold PBS to remove contests, patted dry, weighed and further trimmed for histological analysis. Morphometric analysis was performed to determine the villus/crypt length in the proximal jejunum and distal ileum and crypt depth (length) in the proximal colon.
Data for each group are presented as mean±SEM. Statistical analyses were performed using one-way ANOVA followed by Holm-Sidak's multiple comparisons test. Statistical significance compared to vehicle (WD) is marked as *, P<0.05; **, P<0.01, ***, P<0.001, and ****, P<0.0001.

Row | SMILES | cumulative fecal form score (FFS) [1] | EC50 [2] [µM] | active GLP-1 levels / release ([3]; WD-fed mice, Day 30 plasma, I-389 30 mg/kg, linagliptin 10 mg/kg, FIG. 14) | total GLP-1 levels ([3]; WD-fed mice, Day 30 plasma, I-389 30 mg/kg, linagliptin 10 mg/kg, FIG. 15) | body weight ([3]; WD-fed mice, data not shown) | liver total cholesterol levels (in words) ([3]; WD-fed mice, vs vehicle (WD)) | liver triglycerides (in words) ([3]; WD-fed mice, vs vehicle (WD)) | Liver weight ([3]; Western diet, liraglutide 0.4 mg/kg BID SQ, I-389 30 mg/kg BID PO, linagliptin 10 mg/kg QD PO, mean±SEM, vehicle WD 2.13 ± 0.14) | 4-h fasted insulin ([3]; Western diet, liraglutide 0.4 mg/kg BID SQ, I-389 30 mg/kg BID PO, linagliptin 10 mg/kg QD PO, mean±SEM, vehicle WD 2.3 ± 0.3) | Hepatic cholesterol ([3]; Western diet, liraglutide 0.4 mg/kg BID SQ, I-389 30 mg/kg BID PO, linagliptin 10 mg/kg QD PO, mean±SEM, vehicle WD 8.56 ± 0.25) | Hepatic triglycerides ([3]; Western diet, liraglutide 0.4 mg/kg BID SQ, I-389 30 mg/kg BID PO, linagliptin 10 mg/kg QD PO, mean±SEM, vehicle WD 145.40 ± 14.80) | 4-h fasted glucose ([3]; Western diet, liraglutide 0.4 mg/kg BID SQ, I-389 30 mg/kg BID PO, linagliptin 10 mg/kg QD PO, mean±SEM, vehicle WD 239 ± 13) | percentage the carmine red dye front travelled in the small intestine [4] | increase of colon weight ([5]; teduglutide 50 μg/kg SC BID (trend), I-389 100 mg/kg PO BID co-dosed with sitagliptin 3.6 g/L in drinking water, FIG. 7, FIG. 8) [%] | increase of small intestine weight ([5]; teduglutide 50 μg/kg SC BID, FIG. 7) [%] | increase of villus-crypt length in the proximal jejunum ([5]; teduglutide 50 μg/kg SC BID, I-389 100 mg/kg PO BID + sitagliptin, FIG. 9) [%] | increase of villus-crypt length in the distal ileum ([5]; teduglutide 50 μg/kg SC BID, I-389 100 mg/kg PO BID + sitagliptin, FIG. 10) [%]
1 | O=C(NCCCCNS(=O)(=O)c1ccc(Cl)c(COC2(c3cnccc3-c3ccccc3OC3CC3)CC2)c1)[C@@H](O)[C@@H](O)[C@H](O)[C@@H](O)CO [Compound I-388, (2S,3S,4R,5S)-N-(4-[[4-chloro-3-([1-[4-(2-cyclopropoxyphenyl)pyridin-3-yl]cyclopropoxy]methyl)benzene]sulfonamido]butyl)-2,3,4,5,6-pentahydroxyhexanamide] | significantly improved | < 0.1 |  |  |  |  |  |  |  |  |  |  |  |  |  |  | 
2 | CN(CCCCNC(=O)N[C@@H](CO)[C@@H](O)[C@H](O)[C@H](O)CO)S(=O)(=O)c1ccc(Cl)c(COC2(c3cnccc3-c3ccccc3OC3CC3)CC2)c1 [Compound I-389, 1-(4-[N-methyl[4-chloro-3-([1-[4-(2-cyclopropoxyphenyl)pyridin-3-yl]cyclopropoxy]methyl)benzene]sulfonamido]butyl)-3-[(2S,3R,4S,5R)-1,3,4,5,6-pentahydroxyhexan-2-yl]urea] |  | < 0.1 | effective at inducing active GLP-1 release | highly elevated | did not significantly affect | lowered | lowered | 1.77 ± 0.09* g | 1.6 ± 0.2* ng/mL | 7.24 ± 0.41** mg/g | 87.82 ± 13.77*** mg/g | 178 ± 7** mg/dL | statistically significant increase |  |  |  | 
3 | CC[C@H](C)[C@H](NC(=O)[C@H](Cc1ccccc1)NC(=O)[C@H](CC(=O)O)NC(=O)[C@H](CCCNC(=N)N)NC(=O)[C@H](C)NC(=O)[C@H](C)NC(=O)[C@H](CC(C)C)NC(=O)[C@H](CC(N)=O)NC(=O)[C@H](CC(=O)O)NC(=O)[C@H](CC(C)C)NC(=O)[C@@H](NC(=O)[C@@H](NC(=O)[C@H](CC(N)=O)NC(=O)[C@H](CCSC)NC(=O)[C@H](CCC(=O)O)NC(=O)[C@H](CC(=O)O)NC(=O)[C@H](CO)NC(=O)[C@H](Cc1ccccc1)NC(=O)[C@H](CO)NC(=O)CNC(=O)[C@H](CC(=O)O)NC(=O)CNC(=O)[C@@H](N)Cc1c[nH]cn1)[C@@H](C)O)[C@@H](C)CC)C(=O)N[C@@H](CC(N)=O)C(=O)N[C@@H](Cc1c[nH]c2ccccc12)C(=O)N[C@@H](CC(C)C)C(=O)N[C@H](C(=O)N[C@@H](CCC(N)=O)C(=O)N[C@H](C(=O)N[C@@H](CCCCN)C(=O)N[C@H](C(=O)N[C@H](C(=O)N[C@@H](CC(=O)O)C(=O)O)[C@@H](C)O)[C@@H](C)CC)[C@@H](C)O)[C@@H](C)CC [teduglutide] | significantly improved |  |  |  |  |  |  |  |  |  |  |  |  | 14 | 48 | 55 | 30
